From patent US8227448B2, “Nutritional composition with health promoting action containing oligosaccharides” (priority 2000, dated 2012)

Test system: EHEC binding to Caco2 cells
Assay: inhibition of pathogen (EHEC) binding to human colon cancer cells
Assay type: cell-based
Details: EHEC (2×10^8 cfu/ml) on Caco2 cells; test solution 5-10 mg/ml hydrolysed fibre; 1 h at 37° C.; cfu versus blank
Method: Different oligosaccharides obtained by hydrolysis of fibres were used to measure inhibition of pathogen binding to human colon cancer cells. Cells for the binding experiment are grown under standard conditions. The growth medium is removed from the cells and 0.2 ml of minimal essential medium, 0.4 ml EHEC solution (2×10^8 cfu/ml) and 0.4 ml of test solution (5-10 mg/ml hydrolysed fibre) is added. Appropriate blanks are used as controls. Cells are incubated for an hour at 37° C., after which the medium is removed. The cells are washed five times with PBS buffer, lysed, homogenised, diluted and plated to count colony-forming units, following standard procedures. Comparison of the amount of cfu's found with the blank and with one of the fractions, the inhibiting power of the fraction can be calculated as percentage reduction in binding. The table below summarises results of binding reduction. […] All other oligosaccharides (non arabinose-containing) have lower than 60% binding reduction activity.

For OC[C@H]1O[C@@H](O[C@H]2[C@H](O)[C@@H](O)C(O)O[C@@H]2CO)[C@H](O)[C@@H](O)[C@H]1O (stereo partly shown) [lactose], the “% binding reduction” value was 28%.
